Consider eight compounds from PubChem BioAssay (NCI).

“And” between values parts separate entries of the source, which are not always exact repeats. Identical values can stand only once.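 Step 1: Grow cells in 96-well plates. Step 2: Expose to compound for 48 hours at 5 concentrations. Step 3: Interpolate endpoints linearly; if unreached, use highest concentration. Abbreviation: GI50, concentration required for 50% inhibition of growth. TGI marks complete inhibition of growth.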

Some test systems named below: A549 NSCLC; EKVX NSCLC; HCT-15 colon; K-562 leukemia; NCI-H460 lung; NCI-H522 lung; OVCAR-3 ovarian; OVCAR-5 ovarian; PC-3 prostate; SF-268 CNS.
Holding throughout (assay): NCI-60 cell line screen, 48 h

For `N#CCC1(n2cc(-c3ncnc4[nH]ccc34)cn2)CN(C2CCN(C(=O)c3ccnc(C(F)(F)F)c3F)CC2)C1`, the GI50 in the experiment on A549 NSCLC is over 100 µM; in the experiment on EKVX NSCLC, over 100 µM; in the experiment on HCT-15 colon, over 100 µM; in the experiment on K-562 leukemia, 99.2 µM; in the experiment with NCI-H460 lung it was over 100 µM; with NCI-H522 lung, over 100 µM. The GI50 is over 100000 nM in the experiment with OVCAR-3 ovarian, over 100 µM with OVCAR-5 ovarian, over 100 µM in the experiment on PC-3 prostate and over 100000 nM with SF-268 CNS. Moreover, the TGI in the experiment with A549 NSCLC, in the experiment with EKVX NSCLC, in the experiment on HCT-15 colon, with K-562 leukemia, with NCI-H460 lung and with NCI-H522 lung was over 100 µM throughout. Besides, the TGI with OVCAR-3 ovarian, in the experiment on OVCAR-5 ovarian, with PC-3 prostate and in the experiment on SF-268 CNS was over 100 µM throughout.

With `O=c1nc2[nH]c3c(-c4n[nH]c(=O)[nH]c4=O)cccc3c2n[nH]1`, the GI50 in the experiment on A549 NSCLC, in the experiment on EKVX NSCLC, in the experiment with HCT-15 colon, in the experiment with K-562 leukemia, in the experiment with NCI-H460 lung and in the experiment on NCI-H522 lung was over 100 µM throughout. Besides, the GI50 was over 100000 nM in the experiment on OVCAR-3 ovarian, over 100 µM in the experiment on OVCAR-5 ovarian, over 100 µM with PC-3 prostate and over 100000 nM in the experiment with SF-268 CNS. Besides, the TGI in the experiment on A549 NSCLC, with EKVX NSCLC, in the experiment on HCT-15 colon, in the experiment with K-562 leukemia, in the experiment on NCI-H460 lung and in the experiment on NCI-H522 lung was over 100 µM each time. Also, the TGI with OVCAR-3 ovarian, in the experiment with OVCAR-5 ovarian, with PC-3 prostate and in the experiment on SF-268 CNS was over 100 µM each time.

In the case of `COc1cccc(C2C(C#N)=C(N)Oc3cc4c(cc32)OCO4)c1` (stereo not drawn), the GI50 was 0.0649 µM in the experiment with A549 NSCLC; 0.28 µM in the experiment on EKVX NSCLC; 0.0525 µM in the experiment on HCT-15 colon; 0.04 µM in the experiment with K-562 leukemia; 0.0438 µM in the experiment on NCI-H460 lung; 0.0185 µM in the experiment on NCI-H522 lung. Also, the GI50 is 26.4 nM with OVCAR-3 ovarian, 0.661 µM in the experiment with OVCAR-5 ovarian, 0.0534 µM in the experiment with PC-3 prostate and 317 nM in the experiment with SF-268 CNS. Besides, the TGI with A549 NSCLC was 42.6 µM; in the experiment with EKVX NSCLC, 58.8 µM; in the experiment on HCT-15 colon, over 43.5 µM; with K-562 leukemia, over 100 µM; with NCI-H460 lung, 12.2 µM; in the experiment on NCI-H522 lung it was 0.0715 µM. Also, the TGI in the experiment with OVCAR-3 ovarian was 0.0661 µM; in the experiment with OVCAR-5 ovarian, over 100 µM; with PC-3 prostate, 39.5 µM; in the experiment on SF-268 CNS it was over 37.8 µM.

Take `N#CCCN(CCC#N)c1ccc(C=Nc2ccc(F)cc2)cc1`: the TGI in the experiment on A549 NSCLC, in the experiment on EKVX NSCLC, in the experiment on HCT-15 colon, in the experiment on K-562 leukemia, in the experiment with NCI-H460 lung and in the experiment on NCI-H522 lung was over 100 µM in each case. Further, the TGI with OVCAR-3 ovarian, with OVCAR-5 ovarian, in the experiment on PC-3 prostate and with SF-268 CNS was over 100 µM in each case.

On to `COc1cc2cc3c(c(O)c2c(O)c1-c1c(OC)cc2cc4c(c(O)c2c1O)C(=O)O[C@H](C)C4)C(=O)O[C@H](C)C3`, for which the GI50 is 39.3 µM with A549 NSCLC; 16.2 µM in the experiment with EKVX NSCLC; 25.6 µM in the experiment on HCT-15 colon; over 100 µM with K-562 leukemia; 16.8 µM with NCI-H460 lung; 44.3 µM in the experiment on NCI-H522 lung. Further, the GI50 in the experiment with OVCAR-3 ovarian was 21200 nM; in the experiment on OVCAR-5 ovarian, 94.2 µM; in the experiment with PC-3 prostate, 35.8 µM; with SF-268 CNS, 14100 nM. The TGI in the experiment on A549 NSCLC is over 100 µM; in the experiment on EKVX NSCLC, 63.9 µM; with HCT-15 colon, 82.1 µM; with K-562 leukemia, over 100 µM; in the experiment on NCI-H460 lung, 56.8 µM; in the experiment on NCI-H522 lung, over 100 µM. In addition, the TGI is 48.4 µM with OVCAR-3 ovarian, over 100 µM in the experiment on OVCAR-5 ovarian, over 100 µM in the experiment with PC-3 prostate and 37.9 µM with SF-268 CNS.

As for `COc1cc(OC)cc(-c2ccc(-c3ccc(C(=N)N)cn3)s2)c1`, the GI50 in the experiment with A549 NSCLC is 2.19 µM; with EKVX NSCLC it was 2.58 µM; in the experiment on HCT-15 colon, 1.81 µM; with K-562 leukemia, 2.22 µM; in the experiment with NCI-H460 lung, 1.87 µM; in the experiment on NCI-H522 lung, 2.27 µM. Also, the GI50 in the experiment with OVCAR-3 ovarian was 1770 nM; with OVCAR-5 ovarian it was 1.69 µM; in the experiment with PC-3 prostate it was 1.88 µM; with SF-268 CNS, 1730 nM. The TGI with A549 NSCLC stood at 4.69 µM; in the experiment on EKVX NSCLC, 7.17 µM; with HCT-15 colon, 3.49 µM; in the experiment on K-562 leukemia it was 6.19 µM; in the experiment on NCI-H460 lung, 3.45 µM; in the experiment on NCI-H522 lung, 5.59 µM. Moreover, the TGI in the experiment with OVCAR-3 ovarian worked out at 3.2 µM; in the experiment with OVCAR-5 ovarian, 3.13 µM; with PC-3 prostate it was 3.63 µM; in the experiment with SF-268 CNS, 3.35 µM.

Take `Cc1ccnc(Nc2ccc([N+](=O)[O-])c(NCCN3CCOCC3)n2)c1`: the GI50 with A549 NSCLC was 0.0141 µM; with EKVX NSCLC it was 0.0292 µM; with HCT-15 colon, 0.0061 µM; in the experiment with K-562 leukemia, 0.00368 µM; in the experiment with NCI-H460 lung it was 0.00431 µM; in the experiment with NCI-H522 lung it was 0.00209 µM. Further, the GI50 with OVCAR-3 ovarian is 2.66 nM; in the experiment on OVCAR-5 ovarian, 0.074 µM; in the experiment with PC-3 prostate, 0.00603 µM; with SF-268 CNS, 9.26 nM and 59 nM. The TGI in the experiment on A549 NSCLC is over 100 µM; in the experiment on HCT-15 colon, 31.5 µM; in the experiment with K-562 leukemia it was over 100 µM; in the experiment with NCI-H460 lung, over 100 µM; in the experiment with NCI-H522 lung, 0.00686 µM; in the experiment on OVCAR-3 ovarian, 0.0078 µM. Further, the figures for the TGI in the experiment with PC-3 prostate and with SF-268 CNS were 39.5 µM and 42.4 µM, respectively.

On to `c1cncc(C2ONC3=NCCN32)c1` (stereo not drawn), for which the GI50 in the experiment with A549 NSCLC was 40.5 µM; with EKVX NSCLC, 23.2 µM; in the experiment with HCT-15 colon, 11.5 µM; in the experiment on K-562 leukemia it was 35.6 µM; in the experiment with NCI-H460 lung it was 31 µM; in the experiment with NCI-H522 lung it was 9.59 µM. The GI50 with OVCAR-3 ovarian was 2860 nM; in the experiment on OVCAR-5 ovarian it was 58.3 µM; in the experiment on PC-3 prostate it was 30.8 µM; in the experiment with SF-268 CNS it was 21700 nM. The TGI with A549 NSCLC is over 100 µM; in the experiment with EKVX NSCLC, over 100 µM; with HCT-15 colon, 54.7 µM; in the experiment with K-562 leukemia, over 100 µM; in the experiment with NCI-H460 lung, over 100 µM; in the experiment on NCI-H522 lung, over 100 µM. The TGI was 27.8 µM in the experiment with OVCAR-3 ovarian, over 100 µM in the experiment on OVCAR-5 ovarian, over 100 µM in the experiment with PC-3 prostate and over 100 µM in the experiment on SF-268 CNS.
